Drawing on patent publication US9029546B2, “Pyrazolopyridine kinase inhibitors” (Vertex Pharmaceuticals Incorporated, priority 2008, dated 2015), this text covers Ki for 53 compounds.

One assay addresses PKC theta kinase (Homo sapiens, UniProt Q04759). Nature of the assay: PKC theta coupled-enzyme kinase assay (NADH consumption). The format is biochemical. The conditions noted are these: 240 μM ATP, 30° C. On the procedure:
(§1) An assay buffer solution was prepared which consisted of 100 mM HEPES (pH 7.5), 10 mM MgCl2, 25 mM NaCl, 0.1 mM EDTA and 0.01% Brij. An enzyme buffer containing reagents to final assay concentrations of 0.00001% Triton X-100, 200 μg/mL Phosphatidylserine, 20 μg/mL Diacylglycerol, 360 μM NADH, 3 mM phosphoenolpyruvate, 70 μg/mL pyruvate kinase, 24 μg/mL lactate dehydrogenase, 2 mM DTT, 100 μM substrate peptide (ERMRPRKRQGSVRRRV (SEQ ID NO: 1)) and 18 nM PKC theta kinase was prepared in assay buffer. To 60 μL of this enzyme buffer, in a 384 well plate, was added 2 μL of VRT stock solution in DMSO. The mixture was allowed to equilibrate for 10 mins at 30° C. The enzyme reaction was initiated by the addition of 5 μL stock ATP solution prepared in assay buffer to a final assay concentration of 240 μM. Initial rate data was determined from the rate of change of absorbance at 340 nm (corresponding to stoichiometric consumption of NADH) using a Molecular Devices Spectramax plate reader (Sunnyvale, Calif.) over 15 mins at 30° C. For each Ki determination 12 data points covering the VRT concentration range of 0-20 μM were obtained in duplicate (DMSO stocks were prepared from an initial 10 mM VRT stock with subsequent 1:2 serial dilutions). Ki values were calculated from initial rate data by non-linear regression using the Prism software package (Prism 4.0a, Graphpad Software, San Diego, Calif.).

Another assay has as its target PKC Delta (Homo sapiens, UniProt Q05655). As to the kind of experiment: PKC delta coupled-enzyme kinase assay (NADH consumption). The format is biochemical. The conditions noted are these: 240 μM ATP, 30° C. On the procedure: [The source words this procedure for another target and reports this target under the same test.] as §1

The Ki is a dissociation constant, usually derived from enzyme kinetics or from competition with a known ligand. A low value points to higher affinity.

Chain of PKC Delta (Q05655 whole entry): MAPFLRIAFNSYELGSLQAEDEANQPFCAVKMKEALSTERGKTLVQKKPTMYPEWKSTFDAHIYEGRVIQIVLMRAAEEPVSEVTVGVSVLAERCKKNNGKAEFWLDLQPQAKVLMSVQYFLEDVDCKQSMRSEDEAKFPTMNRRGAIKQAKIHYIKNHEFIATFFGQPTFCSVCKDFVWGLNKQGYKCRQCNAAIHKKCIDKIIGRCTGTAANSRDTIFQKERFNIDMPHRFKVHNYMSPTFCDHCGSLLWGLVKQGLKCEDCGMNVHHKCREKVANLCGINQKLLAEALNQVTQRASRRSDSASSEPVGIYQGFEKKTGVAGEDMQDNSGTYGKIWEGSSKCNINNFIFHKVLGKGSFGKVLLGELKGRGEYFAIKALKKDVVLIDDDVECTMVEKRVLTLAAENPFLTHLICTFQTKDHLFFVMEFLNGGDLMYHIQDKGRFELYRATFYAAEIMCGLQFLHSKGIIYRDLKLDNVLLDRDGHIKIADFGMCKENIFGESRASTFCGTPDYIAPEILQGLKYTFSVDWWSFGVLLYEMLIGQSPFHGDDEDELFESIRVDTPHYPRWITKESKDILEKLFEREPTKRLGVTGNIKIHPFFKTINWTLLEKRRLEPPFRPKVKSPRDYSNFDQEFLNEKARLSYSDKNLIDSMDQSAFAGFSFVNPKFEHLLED
Chain of PKC theta kinase (Q04759 whole entry): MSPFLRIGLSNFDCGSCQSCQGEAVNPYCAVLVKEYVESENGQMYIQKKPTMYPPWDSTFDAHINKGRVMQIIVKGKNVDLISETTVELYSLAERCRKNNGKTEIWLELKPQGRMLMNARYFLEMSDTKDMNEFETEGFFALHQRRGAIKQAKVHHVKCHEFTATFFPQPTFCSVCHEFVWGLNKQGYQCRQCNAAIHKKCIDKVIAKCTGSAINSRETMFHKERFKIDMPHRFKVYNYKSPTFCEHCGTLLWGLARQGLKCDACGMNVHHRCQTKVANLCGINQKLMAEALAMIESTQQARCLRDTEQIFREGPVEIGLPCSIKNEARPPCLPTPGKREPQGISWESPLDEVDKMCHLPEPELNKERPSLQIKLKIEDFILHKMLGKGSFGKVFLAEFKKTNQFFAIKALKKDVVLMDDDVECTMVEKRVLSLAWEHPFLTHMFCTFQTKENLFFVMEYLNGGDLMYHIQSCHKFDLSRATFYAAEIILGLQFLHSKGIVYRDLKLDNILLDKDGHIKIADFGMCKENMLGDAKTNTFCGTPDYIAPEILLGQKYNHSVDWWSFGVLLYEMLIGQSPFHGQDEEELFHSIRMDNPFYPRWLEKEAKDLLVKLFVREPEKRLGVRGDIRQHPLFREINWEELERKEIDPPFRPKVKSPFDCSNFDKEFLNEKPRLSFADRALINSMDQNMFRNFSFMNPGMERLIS

Consider `CC(C)(N)CNc1cccc(-c2n[nH]c3ncccc23)n1` [Compound 1, N1-(6-(1H-pyrazolo[3,4-b]pyridin-3-yl)pyridin-2-yl)-2-methylpropane-1,2-diamine], for which the Ki at PKC theta kinase and on PKC Delta was below 50 nM each time.

For the compound `NCCCNc1cccc(-c2n[nH]c3ncccc23)n1` [Compound 2], the Ki on PKC theta kinase and on PKC Delta was below 500 nM in each case.

With `NC1CCCCC1Nc1cccc(-c2n[nH]c3ncccc23)n1` (stereo not shown) [Compound 3], the Ki on PKC theta kinase and at PKC Delta was below 500 nM throughout.

As to `NCC1CCC(CNc2cccc(-c3n[nH]c4ncccc34)n2)CC1` (stereo not shown) [Compound 4], the Ki on PKC theta kinase and on PKC Delta was below 500 nM in each case.

As to `CNCCN(C)c1cccc(-c2n[nH]c3ncccc23)n1` [Compound 5], the Ki on PKC theta kinase and at PKC Delta was below 2800 nM in each case.

For `c1cc(NC2CCNC2)nc(-c2n[nH]c3ncccc23)c1` (stereo not shown) [Compound 6], the Ki at PKC theta kinase and at PKC Delta was below 500 nM in each case.

For `O[C@H](CNc1cccc(-c2n[nH]c3ncccc23)n1)c1ccccc1` [Compound 7], the Ki on PKC theta kinase and on PKC Delta was above 700 nM each time.

Consider `OCCNc1cccc(-c2n[nH]c3ncccc23)n1` [Compound 8], for which the inhibition constant Ki at PKC theta kinase and at PKC Delta was above 700 nM in each case.

As for `NCC(CNc1cccc(-c2n[nH]c3ncccc23)n1)c1ccccc1` (stereo not shown) [Compound 9], the Ki on PKC theta kinase and on PKC Delta was below 50 nM throughout.

In the case of `CC(C)(CN)CNc1cccc(-c2n[nH]c3ncccc23)n1` [Compound 10], the Ki at PKC theta kinase and on PKC Delta was below 500 nM in each case.

As to `N[C@H](CNc1cccc(-c2n[nH]c3ncccc23)n1)c1ccccc1` [Compound 11], the Ki on PKC theta kinase and on PKC Delta was below 500 nM each time.

On to `c1cc(NCC2CCCNC2)nc(-c2n[nH]c3ncccc23)c1` (stereo not shown) [Compound 12], for which the Ki at PKC theta kinase and at PKC Delta was below 500 nM in each case.

`NC1CCC(CNc2cccc(-c3n[nH]c4ncccc34)n2)CC1` (stereo not shown) [Compound 13, N-((4-aminocyclohexyl)methyl)-6-(1H-pyrazolo[3,4-b]pyridin-3-yl)pyridin-2-amine]: the Ki at PKC theta kinase and on PKC Delta was below 500 nM each time.

On to `c1cc(NCC2CCNCC2)nc(-c2n[nH]c3ncccc23)c1` [Compound 14], for which the Ki at PKC theta kinase and on PKC Delta was below 500 nM in each case.

Regarding `CC(C)CC(O)CNc1ccc(C(F)(F)F)c(-c2n[nH]c3ncccc23)n1` (stereo not shown) [Compound 15], the Ki on PKC theta kinase and at PKC Delta was above 700 nM throughout.

For the compound `CC(C)C[C@H](N)CNc1cccc(-c2n[nH]c3ncccc23)n1` [Compound 16], the inhibition constant (Ki) on PKC theta kinase and on PKC Delta was below 500 nM in each case.

Turning to `CC(C)C[C@@H](CN)Nc1cccc(-c2n[nH]c3ncccc23)n1` [Compound 17], the inhibition constant Ki at PKC theta kinase and at PKC Delta was above 700 nM each time.

For `c1cc(NC2CCNCC2)nc(-c2n[nH]c3ncccc23)c1` [Compound 18], the Ki at PKC theta kinase and at PKC Delta was below 50 nM throughout.

For the compound `O[C@H](CNc1ccc(C(F)(F)F)c(-c2n[nH]c3ncccc23)n1)c1ccccc1` [Compound 19], the Ki at PKC theta kinase and on PKC Delta was below 500 nM throughout.

As for `c1cc(NCC2CCCN2)nc(-c2n[nH]c3ncccc23)c1` (stereo not shown) [Compound 20], the Ki at PKC theta kinase and at PKC Delta was above 700 nM each time.

Consider `CC(C)CC(O)CNc1cccc(-c2n[nH]c3ncccc23)n1` (stereo not shown) [Compound 21], for which the Ki on PKC theta kinase and on PKC Delta was above 700 nM throughout.

Regarding `c1cc(NCC2CCNC2)nc(-c2n[nH]c3ncccc23)c1` (stereo not shown) [Compound 22], the Ki on PKC theta kinase and at PKC Delta was below 500 nM throughout.

As for `c1cc(NCC2CCCCN2)nc(-c2n[nH]c3ncccc23)c1` (stereo not shown) [Compound 23], the Ki on PKC theta kinase and at PKC Delta was below 2800 nM each time.

Take `NCC1CCC(CNc2ccc(C(F)(F)F)c(-c3n[nH]c4ncccc34)n2)CC1` (stereo not shown) [Compound 24]: the Ki at PKC theta kinase and at PKC Delta was below 500 nM each time.

For the compound `NC1CCC(CNc2ccc(C(F)(F)F)c(-c3n[nH]c4ncccc34)n2)CC1` (stereo not shown) [Compound 25, N-((4-aminocyclohexyl)methyl)-6-(1H-pyrazolo[3,4-b]pyridin-3-yl)-5-(trifluoromethyl)pyridin-2-amine], the inhibition constant Ki at PKC theta kinase and at PKC Delta was below 500 nM in each case.

In the case of `FC(F)(F)c1ccc(NC2CCCNC2)nc1-c1n[nH]c2ncccc12` (stereo not shown) [Compound 26], the Ki on PKC theta kinase and at PKC Delta was above 700 nM throughout.

As to `FC(F)(F)c1ccc(NCC2CCNCC2)nc1-c1n[nH]c2ncccc12` [Compound 27], the Ki at PKC theta kinase and on PKC Delta was above 700 nM each time.

Turning to `FC(F)(F)c1ccc(NCC2CCCN2)nc1-c1n[nH]c2ncccc12` (stereo not shown) [Compound 28], the Ki at PKC theta kinase and on PKC Delta was above 700 nM each time.

Regarding `FC(F)(F)c1ccc(NCC2CCNC2)nc1-c1n[nH]c2ncccc12` (stereo not shown) [Compound 29], the Ki at PKC theta kinase and on PKC Delta was above 700 nM throughout.

Regarding `NC1CCCC(Nc2ccc(C(F)(F)F)c(-c3n[nH]c4ncccc34)n2)C1` (stereo not shown) [Compound 30], the Ki on PKC theta kinase and on PKC Delta was below 500 nM in each case.

As for `FC(F)(F)c1ccc(NCC2CCCNC2)nc1-c1n[nH]c2ncccc12` (stereo not shown) [Compound 31], the Ki on PKC theta kinase and on PKC Delta was above 700 nM each time.

In the case of `FC(F)(F)c1ccc(NCC2CCCCN2)nc1-c1n[nH]c2ncccc12` (stereo not shown) [Compound 32], the inhibition constant Ki at PKC theta kinase and at PKC Delta was above 700 nM each time.

Consider `CC(C)(CN)CNc1ccc(C(F)(F)F)c(-c2n[nH]c3ncccc23)n1` [Compound 33], for which the Ki on PKC theta kinase and on PKC Delta was below 500 nM each time.

With `NCC1CCCC(CNc2ccc(C(F)(F)F)c(-c3n[nH]c4ncccc34)n2)C1` (stereo not shown) [Compound 34], the Ki on PKC theta kinase and at PKC Delta was above 700 nM throughout.

As to `NC1CCC(Nc2ccc(C(F)(F)F)c(-c3n[nH]c4ncccc34)n2)CC1` (stereo not shown) [Compound 35], the Ki at PKC theta kinase and at PKC Delta was above 700 nM throughout.

Take `NC(CNc1ccc(C(F)(F)F)c(-c2n[nH]c3ncccc23)n1)c1ccccc1` (stereo not shown) [Compound 36]: the Ki on PKC theta kinase and on PKC Delta was below 50 nM throughout.

As to `NC(COc1ccc(C(F)(F)F)c(-c2n[nH]c3ncccc23)n1)c1ccccc1` (stereo not shown) [Compound 37], the Ki on PKC theta kinase and on PKC Delta was below 500 nM throughout.

In the case of `CC(C)C[C@H](N)COc1ccc(C(F)(F)F)c(-c2n[nH]c3ncccc23)n1` [Compound 38], the inhibitory constant (Ki) at PKC theta kinase and on PKC Delta was below 500 nM each time.

For `CC(C)C[C@@H](N)COc1ccc(C(F)(F)F)c(-c2n[nH]c3ncccc23)n1` [Compound 39], the Ki at PKC theta kinase and at PKC Delta was above 700 nM in each case.

Take `FC(F)(F)c1ccc(NC2CCNCC2)nc1-c1n[nH]c2ncccc12` [Compound 40]: the Ki at PKC theta kinase and on PKC Delta was below 2800 nM each time.

As to `NC(=O)c1ccccc1Oc1ccc(C(F)(F)F)c(-c2n[nH]c3ncccc23)n1` [Compound 41], the Ki at PKC theta kinase and at PKC Delta was above 700 nM in each case.

As for `N#CCCNc1ccc(C(F)(F)F)c(-c2n[nH]c3ncccc23)n1` [Compound 42], the Ki at PKC theta kinase and on PKC Delta was above 700 nM each time.

Regarding `FC(F)(F)c1ccc(OCCC2CCCCN2)nc1-c1n[nH]c2ncccc12` (stereo not shown) [Compound 43], the Ki on PKC theta kinase and at PKC Delta was above 700 nM each time.

As to `CN(CC#N)c1ccc(C(F)(F)F)c(-c2n[nH]c3ncccc23)n1` [Compound 44], the Ki on PKC theta kinase and on PKC Delta was below 500 nM each time.

As for `N#CCCOc1ccc(C(F)(F)F)c(-c2n[nH]c3ncccc23)n1` [Compound 45], the Ki on PKC theta kinase and on PKC Delta was above 700 nM in each case.

Regarding `FC(F)(F)c1ccc(OCC2CCCNC2)nc1-c1n[nH]c2ncccc12` (stereo not shown) [Compound 46], the Ki at PKC theta kinase and at PKC Delta was above 700 nM throughout.

For the compound `OC1(CNc2ccc(C(F)(F)F)c(-c3n[nH]c4ncccc34)n2)CCCCC1` [Compound 47], the Ki at PKC theta kinase and on PKC Delta was below 500 nM each time.

Regarding `NCc1ccc(Nc2ccc(C(F)(F)F)c(-c3n[nH]c4ncccc34)n2)cc1` [Compound 48], the Ki on PKC theta kinase and on PKC Delta was above 700 nM each time.

Consider `FC(F)(F)c1ccc(Nc2ccc3nc[nH]c3c2)nc1-c1n[nH]c2ncccc12` [Compound 49], for which the inhibition constant (Ki) at PKC theta kinase and on PKC Delta was above 700 nM each time.

Take `NC(=O)c1ccsc1Nc1ccc(C(F)(F)F)c(-c2n[nH]c3ncccc23)n1` [Compound 50]: the Ki on PKC theta kinase and at PKC Delta was above 700 nM each time.

Take `FC(F)(F)c1ccc(OC[C@@H]2CCCN2)nc1-c1n[nH]c2ncccc12` [Compound 51]: the Ki at PKC theta kinase and at PKC Delta was above 700 nM each time.

`CN(C)C(C)(C)COc1ccc(C(F)(F)F)c(-c2n[nH]c3ncccc23)n1` [Compound 52]: the Ki on PKC theta kinase and on PKC Delta was above 700 nM in each case.

Regarding `CC(O)CNc1ccc(C(F)(F)F)c(-c2n[nH]c3ncccc23)n1` (stereo not shown) [Compound 53], the Ki on PKC theta kinase and on PKC Delta was above 700 nM in each case.
